Experimental data: patent US20130109682A1, “CYCLIC ETHER COMPOUNDS USEFUL AS KINASE INHIBITORS” (NOVARTIS AG, priority 2010, published 2013)
Read-outs that look alike come from different tables or passages of the source.

Assays:
[1] = system: KMS11 (human myeloma cell line); test: Cell proliferation assay (CellTiter-Glo), KMS11; assay type: cell-based; details: Homo sapiens, KMS-11
In short: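 EC50 derived from CellTiter-Glo luminescence after 3-day exposure at 37° C. Compound was diluted to 2× in medium and added to an equal volume of cells. KMS11 myeloma cells were plated on assay day at 2000/well in IMDM with 10% FBS and sodium pyruvate.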

cABLT315 kinase = cABLT315 kinase (Homo sapiens, UniProt P00519); test: cABLT315 kinase Caliper assay; assay type: biochemical
Method: PKCα and cABLT315 Kinase Caliper Assays
Assays were performed in 384 well microtiter plates. Each assay plate contained 8-point serial dilutions for test compounds, as well as two 16-point serial dilutions of staurosporine as reference compound, plus 16 high- and 16 low controls. Liquid handling and incubation steps were done on a Thermo CatX workstation equipped with a Innovadyne Nanodrop Express. Between pipetting steps, tips were cleaned in wash cycles using wash buffer. Plates with terminated kinase reactions were transferred to the Caliper LC3000 workstations for reading. Phosphorylated and unphosphorylated peptides were separated using the Caliper microfluidic mobilitishift technology and Kinase activities were calculated from the amounts of formed phospho-peptide.
Kinase reactions were prepared in 384 low volume plates by the following sequence:
1. 0.05 μA Compound (start with 1.8 mM in 90% DMSO/10% H2O)
2. +4.5 μl 2× peptide/ATP solution
3. +4.5 μl 2× enzyme solution
4. Incubate for 60 min at 30° C.
4. +16 μl stop/run buffer
Independent of the kinase, all reactions were done performed in 50 mM HEPES, pH 7.5, 1 mM DTT, 0.02% Tween20, 0.02% BSA, and 0.6% DMSO. For cABLT315 assay specific details were as follows: [cABLT315 kinase]=2.4 nM, [ATP]=10 uM, [peptide]=2 uM, [Mg]=10 mM. For PKCα, assay specific details were as follows: [kinase]=0.012 nM, [ATP]=17 uM, [peptide]=1 uM, [Mg]=7 mM, [Ca]=0.2 mM.

PDGFRaV561D kinase = PDGFRaV561D kinase (Homo sapiens, UniProt P16234, V561D); test: PDGFRaV561D kinase inhibition assay (LanthaScreen TR-FRET); assay type: biochemical; details: read-out: PDGFRa IC50
Sequence of PDGFRaV561D kinase (P16234 24-1089 V561D): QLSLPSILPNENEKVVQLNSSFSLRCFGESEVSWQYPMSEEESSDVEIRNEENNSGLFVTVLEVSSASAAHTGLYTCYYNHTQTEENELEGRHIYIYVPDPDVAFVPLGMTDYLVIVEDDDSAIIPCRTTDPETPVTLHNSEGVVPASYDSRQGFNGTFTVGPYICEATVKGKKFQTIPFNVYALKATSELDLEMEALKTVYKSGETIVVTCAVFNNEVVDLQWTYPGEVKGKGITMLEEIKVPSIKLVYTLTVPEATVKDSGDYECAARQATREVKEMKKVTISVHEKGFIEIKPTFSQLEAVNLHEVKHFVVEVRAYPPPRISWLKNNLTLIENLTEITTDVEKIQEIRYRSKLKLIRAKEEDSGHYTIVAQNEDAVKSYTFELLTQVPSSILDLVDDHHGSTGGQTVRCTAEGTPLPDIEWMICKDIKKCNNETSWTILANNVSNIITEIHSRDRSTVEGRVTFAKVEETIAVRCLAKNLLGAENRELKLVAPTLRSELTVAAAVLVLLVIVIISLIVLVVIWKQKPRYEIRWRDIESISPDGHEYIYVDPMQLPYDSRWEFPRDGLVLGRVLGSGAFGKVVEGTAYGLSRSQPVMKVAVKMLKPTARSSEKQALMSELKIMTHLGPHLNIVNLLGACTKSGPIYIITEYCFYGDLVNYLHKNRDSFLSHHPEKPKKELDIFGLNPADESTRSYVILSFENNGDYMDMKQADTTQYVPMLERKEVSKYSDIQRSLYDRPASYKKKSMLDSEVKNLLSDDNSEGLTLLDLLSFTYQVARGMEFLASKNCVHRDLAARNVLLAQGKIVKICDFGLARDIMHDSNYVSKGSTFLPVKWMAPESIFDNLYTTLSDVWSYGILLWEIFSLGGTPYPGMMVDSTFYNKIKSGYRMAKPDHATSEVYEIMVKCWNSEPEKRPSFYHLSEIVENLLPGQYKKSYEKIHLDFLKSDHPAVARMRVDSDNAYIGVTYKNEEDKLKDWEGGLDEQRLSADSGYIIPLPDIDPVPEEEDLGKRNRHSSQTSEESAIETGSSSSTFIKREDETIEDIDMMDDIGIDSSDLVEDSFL
Method: PDGFRaV561D Kinase Inhibition Assay
LanthaScreen™ is the detection of Time-Resolved Fluorescence Resonance Energy Transfer (TR-FRET) using lanthanide chelates to measure interactions between various binding partners. The application of TR-FRET to assay kinase activity was first described by Mathis (1995). A TR-FRET assay was used to measure PDGFRaV561D kinase inhibitory activity. The assay panel was run on a Biomek FX liquid handling workstations. To the assay plates containing […] compound or control solutions, 4.5 μL of buffer A (50 mM TRIS-HCl pH 7.4, 2 mM DTT, 0.02% Tween 20, 0.02 mM Na3VO4, H2O nanpure) including a generic concentration of ATP (2 μM f.c.) was added per well, followed by […] of buffer B (4 uM ATP in Buffer A) including a generic concentration of polyEAY (50 nM f.c.), PDGFRaV561D kinase, and divalent cations. Final concentration of kinase and cations were: [PDGFRaV561D kinase]=4.4 nM, [Mn]=10 mM. After 1 hour of incubation the kinase reactions were stopped by the addition of 4.5 μL of stop solution D (50 mM EDTA, 20 mM TRIS-HCl pH 7.4, 0.04% NP-40) immediately followed by 4.5 μL of buffer A (50 mM TRIS-HCl pH 7.4, 2 mM DTT, 0.02% Tween 20, 0.02 mM Na3VO4, H2O nanpure) including the Tb-labeled P-20 antibody to give a total detection volume of […]. After an incubation time of 45 min in the dark, the plates were transferred into the Pherastar fluorescence reader for counting. The effect of compound on the enzymatic activity was obtained from the linear progress curves and determined from one reading (end point measurement).

PIM2 = PIM2 (Homo sapiens, UniProt Q9P1W9); test: Pim 2 AlphaScreen assay (high ATP); assay type: biochemical; details: read-out: Pim2 IC50
Sequence of PIM2 (Q9P1W9 whole entry): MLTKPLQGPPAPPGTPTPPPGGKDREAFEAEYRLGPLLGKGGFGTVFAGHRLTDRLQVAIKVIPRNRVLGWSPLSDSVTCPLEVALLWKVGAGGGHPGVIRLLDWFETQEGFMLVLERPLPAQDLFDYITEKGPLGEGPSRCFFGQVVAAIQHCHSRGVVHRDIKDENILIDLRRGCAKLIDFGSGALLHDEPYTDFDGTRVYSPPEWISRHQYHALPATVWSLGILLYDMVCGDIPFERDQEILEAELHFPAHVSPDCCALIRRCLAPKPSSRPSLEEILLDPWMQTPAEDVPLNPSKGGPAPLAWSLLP
In short: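 IC50 values rest on detection of phosphorylated Bad peptide: after a ~2 h kinase reaction, an EDTA stop buffer containing anti-phospho Ser/Thr antibody, Protein A and streptavidin AlphaScreen beads was added and read after overnight dark incubation. ATP was high (11-125× Km), with 2.5% DMSO in pH 7.5 Hepes buffer containing MgCl2, BSA, Tween-20 and DTT.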

[2] = KMS11 cells, cell proliferation, read-out: KMS11-Luc EC50

SMILES | EC50 ([1]; KMS11-Luc cells) [nM] | IC50 (cABLT315 kinase) [nM] | IC50 (PDGFRaV561D kinase) [nM] | IC50 (PIM2) [nM] | EC50 [1, 2] [nM] | IC50 (cABLT315 kinase; Caliper assay) [nM]
CC[C@]1(O)[C@H](O)C[C@H](c2ccncc2NC(=O)c2nc(-c3c(F)cccc3F)ncc2N)O[C@@H]1C [Example 143, 5-amino-2-(2,6-difluorophenyl)-N-(4-((2R,4R,5S,6R)-5-ethyl-4,5-dihydroxy-6-methyltetrahydro-2H-pyran-2-yl)pyridin-3-yl)pyrimidine-4-carboxamide] | 1940 | > 10000 | > 10000 |  |  | 
O=C1CC[C@H]2O[C@@H](c3ccncc3NC(=O)c3ccc(F)c(-c4c(F)cccc4F)n3)C[C@@H](O)[C@@H]2N1 [Example 196, 6-(2,6-difluorophenyl)-5-fluoro-N-(4-((2R,4R,4aS,8aR)-4-hydroxy-6-oxooctahydro-2H-pyrano[3,2-b]pyridin-2-yl)pyridin-3-yl)picolinamide] | 8100 | > 10000 | > 10000 |  |  | 
N[C@@H]1C[C@H](c2ccncc2NC(=O)c2ccc(F)c(-c3c(F)cccc3F)n2)O[C@@H]2CCC[C@]12O [Example 210, N-(4-((2R,4R,4aS,7aR)-4-amino-4a-hydroxyoctahydrocyclopenta[b]pyran-2-yl)pyridin-3-yl)-6-(2,6-difluorophenyl)-5-fluoropicolinamide] | 640 | > 10000 | 400 |  |  | 
Nc1cnc(-c2c(F)cccc2F)nc1C(=O)Nc1cnccc1[C@H]1C[C@@H](N)[C@@]2(O)CCC[C@H]2O1 [Example 213, 5-amino-N-(4-((2R,4R,4aS,7aR)-4-amino-4a-hydroxyoctahydrocyclopenta[b]pyran-2-yl)pyridin-3-yl)-2-(2,6-difluorophenyl)pyrimidine-4-carboxamide] | 2800 | > 10000 | 4000 |  |  | 
C[C@H]1O[C@@H](c2ccncc2NC(=O)c2ccc(F)c(-c3c(F)cccc3F)n2)C[C@@H](N)[C@]1(C)O [Example 219, N-(4-((2R,4R,5S,6R)-4-amino-5-hydroxy-5,6-dimethyltetrahydro-2H-pyran-2-yl)pyridin-3-yl)-6-(2,6-difluorophenyl)-5-fluoropicolinamide] |  |  | 630 | 8.5 | 420 | > 10000
N[C@@H]1C[C@H](c2ccncc2NC(=O)c2ccc(F)c(-c3c(F)cccc3F)n2)O[C@@H]2CCC[C@H]12 [Example 224, N-(4-((2R,4R,4aR,7aR)-4-aminooctahydrocyclopenta[b]pyran-2-yl)pyridin-3-yl)-6-(2,6-difluorophenyl)-5-fluoropicolinamide] |  |  | 390 |  | 650 | > 10000
N[C@H]1C[C@@H](c2ccncc2NC(=O)c2csc(-c3c(F)cccc3F)n2)O[C@H]2CCC[C@H]21 [Example 230, N-(4-((2S,4S,4aS,7aS)-4-aminooctahydrocyclopenta[b]pyran-2-yl)pyridin-3-yl)-2-(2,6-difluorophenyl)thiazole-4-carboxamide] |  |  | 1500 |  | 2990 | > 10000
CC[C@]1(O)[C@H](N)C[C@H](c2ccncc2NC(=O)c2ccc(F)c(-c3c(F)cccc3F)n2)O[C@@H]1C [Example 232, N-(4-((2R,4R,5S,6R)-4-amino-5-ethyl-5-hydroxy-6-methyltetrahydro-2H-pyran-2-yl)pyridin-3-yl)-6-(2,6-difluorophenyl)-5-fluoropicolinamide] |  |  | 630 |  |  | > 10000
COc1cc(F)c(-c2nc(C(=O)Nc3cnccc3[C@H]3C[C@@H](N)[C@](C)(O)[C@@H](C)O3)ccc2F)c(F)c1 [Example 242, N-(4-((2R,4R,5S,6R)-4-amino-5-hydroxy-5,6-dimethyltetrahydro-2H-pyran-2-yl)pyridin-3-yl)-6-(2,6-difluoro-4-methoxyphenyl)-5-fluoropicolinamide] |  |  | 400 | 9.9 |  | > 10000
CC1(C)C[C@@H](N)C[C@H](c2ccncc2NC(=O)c2nc(-c3ccccc3)cnc2N)O1 [Example 296, 3-amino-N-(4-((2R,4S)-4-amino-6,6-dimethyltetrahydro-2H-pyran-2-yl)pyridin-3-yl)-6-phenylpyrazine-2-carboxamide] |  |  | 8.7 | 283 |  | 110
CC1(C)C[C@H](N)C[C@@H](c2ccncc2NC(=O)c2nc(-c3ccccc3)cnc2N)O1 [Example 297, 3-amino-N-(4-((2S,4R)-4-amino-6,6-dimethyltetrahydro-2H-pyran-2-yl)pyridin-3-yl)-6-phenylpyrazine-2-carboxamide] |  |  | 150 | 514 |  | 860

Results, then the molecule that gave them:

EC50 ([1]; KMS11-Luc cells) [nM] | IC50 (cABLT315 kinase) [nM] | IC50 (PDGFRaV561D kinase) [nM] | IC50 (PIM2) [nM] | EC50 [1, 2] [nM] | IC50 (cABLT315 kinase; Caliper assay) [nM] | SMILES
2800 | 700 |  |  |  |  | C[C@@H]1O[C@H](c2ccncc2NC(=O)c2nc(-c3ccccc3)cnc2N)C[C@H](O)[C@@]1(C)O [Example 86, 3-amino-N-(4-((2S,4S,5R,6S)-4,5-dihydroxy-5,6-dimethyltetrahydro-2H-pyran-2-yl)pyridin-3-yl)-6-phenylpyrazine-2-carboxamide]
 | 70 | 48 |  |  |  | Nc1ncc(-c2ccccc2)nc1C(=O)Nc1cnccc1[C@H]1C[C@@H](O)[C@@]2(O)CCCC[C@H]2O1 [Example 173, 3-amino-N-(4-((2R,4R,4aS,8aR)-4,4a-dihydroxyoctahydro-2H-chromen-2-yl)pyridin-3-yl)-6-phenylpyrazine-2-carboxamide]
3600 | 7400 | 8000 |  |  |  | Nc1ncc(-c2ccccc2)nc1C(=O)Nc1cnccc1[C@@H]1C[C@H](O)[C@]2(O)CCCC[C@@H]2O1 [Example 176, 3-amino-N-(4-((2S,4S,4aR,8aS)-4,4a-dihydroxyoctahydro-2H-chromen-2-yl)pyridin-3-yl)-6-phenylpyrazine-2-carboxamide]
> 10000 | > 10000 | > 10000 |  |  |  | O=C(Nc1cnccc1[C@H]1C[C@@H](O)[C@@]2(O)CCCC[C@H]2O1)c1c[nH]cc(-c2ccccc2)c1=O [Example 178, N-(4-((2R,4R,4aS,8aR)-4,4a-dihydroxyoctahydro-2H-chromen-2-yl)pyridin-3-yl)-4-oxo-5-phenyl-1,4-dihydropyridine-3-carboxamide]
6910 | 9900 | > 10000 |  |  |  | Nc1ncc(-c2ccccc2)nc1C(=O)Nc1cnccc1[C@@H]1C[C@H](O)[C@]2(O)CCC[C@@H]2O1 [Example 186, 3-amino-N-(4-((2S,4S,4aR,7aS)-4,4a-dihydroxyoctahydrocyclopenta[b]pyran-2-yl)pyridin-3-yl)-6-phenylpyrazine-2-carboxamide]
110 | 90 | 33 |  |  |  | Nc1ncc(-c2ccccc2)nc1C(=O)Nc1cnccc1[C@H]1C[C@@H](O)[C@@]2(O)CCC[C@H]2O1 [Example 195, 3-amino-N-(4-((2R,4R,4aS,7aR)-4,4a-dihydroxyoctahydrocyclopenta[b]pyran-2-yl)pyridin-3-yl)-6-phenylpyrazine-2-carboxamide]
 |  | 7500 | 1.8 |  | > 10000 | Nc1cc(F)c(-c2c(F)cccc2F)nc1C(=O)Nc1cnccc1[C@H]1C[C@@H](N)[C@@]2(O)CCCC[C@H]2O1 [Example 238, 3-amino-N-(4-((2R,4R,4aS,8aR)-4-amino-4a-hydroxyoctahydro-2H-chromen-2-yl)pyridin-3-yl)-6-(2,6-difluorophenyl)-5-fluoropicolinamide]
